Test results published in patent publication US8334259B2, “Method of treating endothelial dysfunction comprising administration of a thrombin peptide derivative” (The Board of Regents, The University of Texas System, priority 2006, dated 2012).

Columns and labels:
eNOS [1] = experiment: Western blot of eNOS expression and phosphorylation (S1177) in HCAE cells; assay type: cell-based, human; conditions: 24 h
Experimental: (§1) Human coronary artery endothelial cells (HCAE cells, Cambrex Bio Science Walkersville, Walkersville, Md.) were cultured in 5% CO2 at 37° C. in endothelial cell growth medium (EGM) supplemented with 2% fetal bovine serum and Single Quot supplements (Clonetics, San Diego, Calif.; containing epidermal growth factor, hydrocortisone, vascular endothelial growth factor, fibroblast growth factor, insulin growth factor, ascorbic acid, heparin, gentamycin, and amphotericin B). Cells were used between passages 4 and 6 for these studies. HCAE cells were plated at a density of 50,000 cells per well in 12-well plates and were grown for 3 days to reach confluency. Two-day post-confluent cells were treated with TNFα or TP508. Cells were then incubated in normoxic or 1% hypoxic conditions for the indicated times. In some experiments, cells were pretreated with TP508 for 1 h before TNFα stimulation. For RNA extraction, HCAE cells were cultured in 6-well plates.
The cell lysates were subjected to SDS-PAGE in a 10% polyacrylamide gel and transferred to a nitrocellulose membrane (0.2-μm, Invitrogen). After blocking with 5% milk, the membrane was incubated overnight at 4° C. with primary antibodies against phospho-eNOS (Ser 1177) and eNOS (Cell Signaling Technology, Beverly, Mass.), human type-1 arginase (clone 9C5) (Cell Sciences, Canton, Mass.), or GAPDH (Santa Cruz Biotechnology, Santa Cruz, Calif.). […]

ARG1 = ARG1 expression in HAE cells treated with TNFα; assay type: cell-based, human
From the text: Under normoxic conditions, TP508 increased phosphorylated eNOS (p-eNOS) and eNOS in cells with and without TNFα/hypoxic treatment.

eNOS mRNA [2] = experiment: SYBR Green real-time PCR of eNOS mRNA in HCAE cells; assay type: cell-based, human; conditions: 24 h
Experimental: as §1
Real time quantitative PCR was used to determine relative expression of eNOS mRNA in endothelial cells treated with TP508 or TNF. […] Quantitative PCR amplifications were done using 2 μl of cDNA in a total volume of 25 μl using SYBR green probes in the SYBR Green PCR Master Mix (ABI). […] The reverse-transcribed cDNA sample cycle threshold values were determined from triplicate samples and normalized to the 18S “housekeeping” gene.

eNOS mRNA [3] = experiment: RT-PCR of eNOS mRNA in HCAE cells; assay type: cell-based, human; conditions: 6 h, 25 or 30 cycles
Experimental: as §1
Total RNA was isolated using an Ambion isolation kit as described by the manufacturer.
RT-PCR for eNOS was performed by Ready-to-Go RT-PCR Beads (Amersham Biosciences) using a two-step protocol. First, cDNA synthesis was achieved by incubating 1 μg total RNA with 1 μg random hexamers (pdN6) as primers and M.-MuLV reverse transcriptase at 42° C. for 60 min. […]

arginase 1 (ARG1) = experiment: Western blot of arginase 1 expression in HCAE cells with or without TNFα; assay type: cell-based, human; conditions: TNFα 24 h, normoxic
Experimental: Human coronary artery endothelial cells (HCAE cells, Cambrex Bio Science Walkersville, Walkersville, Md.) were cultured in 5% CO2 at 37° C. in endothelial cell growth medium (EGM) supplemented with 2% fetal bovine serum and Single Quot supplements (Clonetics, San Diego, Calif.; containing epidermal growth factor, hydrocortisone, vascular endothelial growth factor, fibroblast growth factor, insulin growth factor, ascorbic acid, heparin, gentamycin, and amphotericin B). Cells were used between passages 4 and 6 for these studies. HCAE cells were plated at a density of 50,000 cells per well in 12-well plates and were grown for 3 days to reach confluency. […] Cells were then incubated in normoxic or 1% hypoxic conditions for the indicated times.
The cell lysates were subjected to SDS-PAGE in a 10% polyacrylamide gel and transferred to a nitrocellulose membrane (0.2-μm, Invitrogen). After blocking with 5% milk, the membrane was incubated overnight at 4° C. with primary antibodies against phospho-eNOS (Ser 1177) and eNOS (Cell Signaling Technology, Beverly, Mass.), human type-1 arginase (clone 9C5) (Cell Sciences, Canton, Mass.), or GAPDH (Santa Cruz Biotechnology, Santa Cruz, Calif.). HRP-conjugated anti-mouse or anti-rabbit antibodies (Cell Signaling Technology) were used as secondary antibodies (HRP, horseradish peroxidase). […]

[4] = tested on: Human coronary artery endothelial (HCAE) cells; experiment: Endothelial cell invasion assay through Matrigel toward human VEGF; assay type: cell-based; conditions: cells not pretreated, VEGF 10 ng/ml, normoxic or hypoxic
Experimental: Invasion of endothelial cells through a Matrigel matrix is one of many assays used to determine the angiogenic potential of test substances and is thought to be more predictive of angiogenesis in vivo than a simple chemotactic assay through open membrane pores since the cells must degrade and invade the matrix to move into and through the pores in the membrane. […] Human coronary artery endothelial (HCAE) cells (Lonza Walkersville, Inc., Walkersville, Md.) were cultured in the absence (control) or presence of TP508 [50 μg/ml] (TP pret) for 24 hours. Endothelial cell invasion assays were performed using BD BioCoat™ Angiogenesis System (BD Bioscience, Bedford, Mass.) which utilizes FluoroBlok inserts coated with BD Matrigel Matrix (BD Bioscience, Bedford, Mass.). Control or TP508 pretreated cells were added into the top of the inserts. […] After 22 hours of incubation, cells were labeled post-invasion with Calcein AM and measured by detecting the fluorescence of the cells that migrated to the underside of insert membrane.

[5] = tested on: Human coronary artery endothelial (HCAE) cells; experiment: Transmembrane cell migration assay toward human VEGF (BD FluoroBlok inserts); assay type: cell-based; conditions: VEGF 10 ng/ml, hypoxic, 22 h
Experimental: The ability of a test substance to attract endothelial cells and stimulate their migration through pores in the membrane is one of several tests to determine the angiogenic potential of test substances. […] Prior to migration assay, cells were cultured with or without TP508 to determine the effect of TP508 on endothelial migration. Human coronary artery endothelial (HCAE) cells (Lonza Walkersville, Inc., Walkersville, Md.) were cultured in the absence (control) or presence of TP508 [50 μg/ml] (“TP pret” in FIG. 9A and FIG. 9B) for 24 hours. Transmembrane cell migration assays were performed using BD FluoroBlok inserts (BD Bioscience, Bedford, Mass.) as described by the vendor. Control or TP508 pretreated cells were added into the top of the inserts. […] (V) or medium alone (C) was added to the lower chamber of the insert plate as a chemoattractant. Endothelial migration was performed in normoxic or 1% hypoxic conditions. After a 22-hour incubation, cells were labeled post-migration with Calcein AM and measured by detecting the fluorescence of the cells that migrated to the underside of the insert membrane.

eNOS [6] = experiment: Human VEGF-induced eNOS activation (phosphorylation at S1177) in HCAE cells, Western blot; assay type: cell-based
Experimental: Human VEGF-induced eNOS activation was determined by Western blotting using an antibody recognizing the activated form of eNOS (phosphorylated at […]) (Cell Signaling, Danvers, Mass.). The membrane was re-probed with anti-GAPDH (glyceraldehyde-3-phosphate dehydrogenase) antibody to show equal protein loading. A bar graph representing densitometric analysis of the activated eNOS Western blot after different treatments is shown in FIG. 8.

[7] = tested on: HLME (Human Lung Microvascular Endothelial Cells); experiment: Survival of serum-deprived HLME cells; assay type: cell-based
VEGF mRNA = experiment: Real-time PCR of VEGF mRNA in HCMVE cells; assay type: cell-based, human; conditions: VEGF 10 ng/ml, 24 h
From the text: Real-time PCR analyses show changes in steady-state levels of VEGF mRNA after treatment. Data from one experiment performed in triplicate are shown in FIG. 11 as mean±SD. *p<0.01 compared to control (C) cells in normoxia. ^#p<0.01 compared to control (C) cells in hypoxia.

23C53 = experiment: Binding of biotin-conjugated thrombin to complementary peptide 23C53
23C53, sequence (as listed by the source): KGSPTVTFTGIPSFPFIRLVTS

AC-23 = experiment: Binding of biotin-conjugated thrombin to complementary peptide AC-23
AC-23, sequence (as listed by the source): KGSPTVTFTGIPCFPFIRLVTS
From the text: Addition of TP508 inhibited specific binding of biotin-labeled thrombin to AC-23. Up to 60% of the binding of thrombin to AC-23 can be inhibited by the addition of TP508. Therefore, both thrombin and TP508 bind to the complementary peptide, AC-23. […] Antibodies to AC-23 and other complementary peptides of thrombin can therefore be used to characterize the thrombin binding site that is activated by TP508, and can be used in the therapeutic and other methods described herein.

Substance: TNFα
- Reduction of eNOS expression relative to normoxic controls (eNOS [1]): 65%
- Expression of ARG1 (ARG1): increasing expression
- Decrease of eNOS mRNA level (eNOS mRNA [2]): ~80%
- eNOS mRNA expression (RT-PCR) (eNOS mRNA [3]): drastically decreased
- ARG1 expression relative to control cultures (arginase 1 (ARG1)): significant increase

Substance: VEGF
- Invasion of control endothelial cells through Matrigel toward human VEGF [4]: not stimulated
- Endothelial cell migration relative to media control cells [5]: ~150%
- Decrease of VEGF-stimulated eNOS phosphorylation in hypoxic compared to normoxic cells (eNOS [6]; hypoxic (1% O2, 24 h) HCAE cells, 1 min VEGF): ~4 fold
- VEGF-induced phosphorylation of eNOS on serine 1177, maximum (eNOS [6]; normoxic HCAE cells, VEGF 50 ng/ml, 1 minute): 2 fold
- Cell survival [7]: increased survival at lower levels
- VEGF mRNA in hypoxic cells (VEGF mRNA; 1% hypoxic): no effect, or decreased
- Decrease of VEGF mRNA expression compared to control cells (VEGF mRNA; normoxic): 2 fold

Substance: thrombin
- Specific binding of thrombin to 23C53 (23C53): bind specifically
- Specific binding of thrombin to AC23 (AC-23): bind specifically
